# Measured values from patent US11707636B2, “Methods and devices for modulating cellular activity using ultrasound” (priority 2008, dated 2023).
# “Also recorded” adds a separate entry of the source.
# What was measured:
# [1] = system: Na^+ transients in CA1 pyramidal neurons; type: cell-based, mice
# motor cortex [2] = system: motor cortex; parameters: species or system mice; details: mouse, in vivo
# motor cortex [3] = system: motor cortex; parameters: species or system mice; details: mouse, in vivo; remark: listed apart in the source
# [4] = system: Ca^2+ transients (OGB-1 signals) in neurons; type: cell-based, mice
# [5] = system: synaptic vesicle exocytosis in hippocampal slice cultures; type: cell-based, mice
compound,measurement,setting,value
"NC1=N[C@H](O)[C@H]2[C@H]3O[C@]4(O)O[C@@H]([C@@H](O)[C@@]2(N1)[C@@H]4O)[C@]3(O)CO [TTX, tetrodotoxin]",Na^+ transient response (ΔF/F0 CoroNa Green) to USW-1,[1],blocked
same,US-evoked EMG activity / descending corticospinal circuit activity,motor cortex [2],blocks
same,US-evoked cortical activity,motor cortex [3],blocked
same,average presynaptic temporal response of OGB-1 to USW-1,[4],nearly abolishing
same,exocytosis (spH response) in response to low intensity ultrasound waveforms,[5],nearly abolishes; also recorded: nearly abolishing
